Data published in article PMC5978685, “Design, Synthesis, and Evaluation of Novel Immunomodulatory Small Molecules Targeting the CD40–CD154 Costimulatory Protein-Protein Interaction” (Molecules : A Journal of Synthetic Chemistry and Natural …, 2018).
pIC50: −log10 of the molar value.

Assays:
[1] = tested on: CD154-induced NF-κB activation in CD40 sensor cells; experiment: CD40 sensor cell assay (HEK Blue CD40, SEAP reporter); assay type: cell-based, human; settings: for pIC50: Homo sapiens, CD154 100 ng/mL, 24 h
Source text: As further confirmation of the inhibitory activity of our compounds, a cell-based assay was used with sensor cells (HEK Blue CD40) containing a secreted embryonic alkaline phosphatase (SEAP) reporter gene under the control of a promoter fused to a NF-κB binding site and transfected with CD40. […] For all tested compounds, the corresponding IC50 values are higher than those determined in the cell-free binding inhibition assay (Table 1) representing a loss of activity which is likely due to non-specific binding on account of the presence of proteins and cells in the assay, as well as hydrophobicity-related problems. Cytotoxicities were also evaluated in these same cells and at the same concentrations using a standard MTS assay to ensure that effects are present at non-toxic concentration levels.
CD40 expressing NF-κB sensor cells (HEK Blue, InvivoGen, San Diego, CA, USA) were used to assess the ability of the present compounds to block CD154-induced activation as described before. Briefly, cells were maintained in DMEM at 80% confluence for each experiment. Cells were trypsinized and re-suspended in the same medium without FBS and seeded on 96-well microtiter plates at a density of 50,000 cells/well in the absence and presence of various concentrations of compounds diluted in the same media. For ligand mediated stimulation, a concentration of recombinant human CD154 (100 ng/mL) found to induce an optimal response was maintained in the wells for this purpose. After 24 h of incubation at 37 °C, 40 μL supernatant of each well were taken and added to another 96-well microtiter plate containing 160 μL/well of QUANTI-Blue (InvivoGen). The level of SEAP was determined after 1 h of incubation at 37 °C by reading at 650 nm using a spectrophotometer. A monoclonal anti-human CD154 antibody (clone 40804, R&D Systems, Minneapolis, MN, USA) was used as a positive control at 240 nM concentration.
(§1) All binding inhibition and cell assays were tested in duplicate or triplicate per plates, and assays were performed as at least three independent experiments. As before, binding and cytotoxicity data were converted to percent inhibition and fitted with standard log inhibitor vs. normalized response models using nonlinear regression in GraphPad Prism (GraphPad, La Jolla, CA, USA) to establish half-maximal (median) inhibitory concentration (IC50) or median lethal concentration (LC50) values. Cell assay data were fitted with a similar model that also allowed for a variable slope using the log inhibitor vs. normalized response (variable slope) model from Prism with a Hill slope (n) shared across all compounds. Cell assays and draining lymph node data were analyzed by one-way repeated-measures analysis of variance (ANOVA) followed by Dunnett’s multiple comparison test as a post hoc test for individual differences using GraphPad Prism and a significance level of p < 0.05 for all comparisons.
Figure 5 Inhibition of CD154-induced NF-κB activation in CD40 sensor cells by compounds 6, 14, 15, and 18 in a concentration-dependent manner. Tartrazine (TZ) and an anti-CD154 antibody (mAb; single dose, 240 nM) were included as negative and positive controls, respectively. Data are average ± SD (normalized to CD154-activated cells alone) for n = 2 independent experiments with duplicates for each condition.

[2] = biological target: T1, BAFFR–BAFF (Homo sapiens, UniProt Q9Y275); experiment: cell-free ELISA-type binding inhibition assay, BAFFR–BAFF
T1 construct: purchased Enzo Life Sciences
Description: In parallel with the CD40–CD154 assay, the ability of these compounds to inhibit other TNFSFR–TNFSF PPIs, including OX40–OX40L, BAFFR–BAFF, and TNF-R1–TNF-α, was also assessed (Figure 3B–D).
Binding inhibition assays were performed in a 96-well cell-free format as described before. Briefly, microtiter plates (Nunc F Maxisorp, 96-well; Thermo Fisher Scientific, Waltham, MA, USA) were coated overnight at 4 °C with 100 μL/well of Fc-conjugated receptors diluted in PBS pH 7.2. This was followed by blocking with 200 μL/well of blocking solution (PBS pH 7.2, 0.05% Tween-20, 1% BSA) for 1 h at RT. Then, plates were washed twice using washing solution (PBS pH 7.4, 0.05% Tween-20) and tapped dry before the addition of the appropriate FLAG tagged ligands along with different concentrations of tested dyes diluted in binding buffer (100 mM HEPES, 0.005% BSA pH 7.2) to give a total volume of 100 μL/well. After 1 h incubation, three washes were conducted, and anti-FLAG HRP conjugate was used to detect the bound FLAG-tagged ligand. Plates were washed four times before the addition of 120 μL/well of HRP substrate TMB (3,3′,5,5′-tetramethylbenzidine) and kept in the dark for up to 15 min. The reaction was stopped using 30 μL of 1M H2SO4, and the absorbance value was read at 450 nm. The concentrations of receptors used were 0.3 μg/mL for CD40, TNF-R1, and BAFFR; 0.6 μg/mL for OX40. The concentrations of the ligands were fixed at 0.02 μg/mL for CD154 and TNF-α, 0.06 μg/mL for OX40L, and 0.03 μg/mL for BAFF. These values were selected following preliminary testing to optimize response (i.e., to produce a high-enough signal at conditions close to half-maximal response, EC50). […] To verify that inhibition is not due to colloidal aggregation, CD40 binding inhibition was also measured in the presence of the non-ionic detergent Triton-X 100 (0.01%), as recommended for the detection of such effects.
as §1
Data are (counterclockwise) for human CD40–CD154 (CD40L) (A); OX40–OX40L (B); BAFFR–BAFF (C); and TNF-R1–TNFα (D) and were fitted with standard binding curves. Data are average ± SD (normalized to percent binding) for n = 3 independent experiments with duplicates for each condition.

T1 sequence (Q9Y275 134-285 limits assumed): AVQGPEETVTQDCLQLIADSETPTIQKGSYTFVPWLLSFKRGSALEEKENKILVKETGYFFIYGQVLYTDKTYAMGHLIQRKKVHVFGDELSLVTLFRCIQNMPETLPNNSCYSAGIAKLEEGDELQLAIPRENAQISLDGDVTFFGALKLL

Structure (SMILES) | inhibition of CD154-induced NF-κB activation (qualitative) [1] | pIC50 [1] | pIC50 [2]
O=C(Nc1ccc(-c2ccc(C(=O)Nc3cccc4cccc(S(=O)(=O)O)c34)cc2)nc1)c1ccc([N+](=O)[O-])cc1 [Compound 18, 8-(4-(5-(4-Nitrobenzamido)pyridin-2-yl)benzamido)naphthalene-1-sulfonic acid] | concentration-dependent inhibition | 5.06 | 5.09
O=C(Nc1ccc(-c2ccc(C(=O)Nc3cccc4cccc(S(=O)(=O)O)c34)cc2)cc1)c1ccc([N+](=O)[O-])cc1 [Compound 6, 8-(4′-(4-Nitrobenzamido)biphenyl-4-ylcarboxamido)naphthalene-1-sulfonic acid] | concentration-dependent inhibition | 4.70 | 6.48
COC(=O)c1ccc(-c2ccc(C(=O)Nc3ccc(-c4ccc(C(=O)Nc5cccc6cccc(S(=O)(=O)O)c56)cc4)cc3)cc2)cc1 [Compound 15, 8-(4′-(4′-(Methoxycarbonyl)-[1,1′-biphenyl]-4-carboxamido)-[1,1′-biphenyl]-4-carboxamido)naphthalene-1-sulfonic acid] | concentration-dependent inhibition | 5.22 | 5.82
